This is an account of results in patent US7501113B2, “Aerosol formulations and aerosol delivery of buprenorphine” (priority 2003, dated 2009).

Each structure is given as a SMILES string. Where “and” joins values, the source holds several entries; their conditions need not be identical. Identical values can stand only once. Like-named read-outs stand apart in the source and are kept apart here.

The conditions of data set [1]: 5 mg/sec.
Protocol: Sham determinations were performed for each set of experiments to determine an “expected” amount of active per capillary aerosol generator (CAG) activation. This was performed by running the equipment at a target resistance of 0.2 ohms, which pumped out the solution of buspirone in PG as a liquid instead of an aerosol. The result was collected on a Kimwipe which was placed into sample solvent and sonicated. This process was performed in triplicate. Two solution concentrations of about 0.5% and about 2% of buspirone in PG were prepared.
(§2) Dose capture determinations were conducted (Table 1). For dose capture runs 1-6, the device was actuated once, the aerosol collected in acidified water, diluted to 40 mL. Runs 7-12 were performed as above, except distilled de-ionized water was used instead of acidified water. For runs 13-33, the device was actuated 4 times, the aerosol was collected in 8 mL of sample solvent, and analyzed for buspirone and degradation products using the “stability indicating” assay. Intact buspirone was calculated. The extent of degradation was evaluated by assuming that the degradation products had similar extinction coefficients as the parent at the wavelength of interest.
The result was collected on a Kimwipe, placed into sample solvent and sonicated. This process was performed in triplicate and was analyzed with other analytical samples.
(§3) Dose capture determinations were conducted.
Sham determinations were performed for each set of experiments to determine an “expected” amount of active per CAG activation. […] This was collected on a Kimwipe which was placed into sample solvent and sonicated. The process was performed in triplicate and was analyzed with other analytical samples.
(§4) Dose capture determinations were conducted (Table 6). For dose capture runs 1-3, the device was actuated once, the aerosol collected in 10 mL of sample solvent and analyzed using the “stability indicating” method. Runs 4-9 were performed as above except the device was actuated twice and collected in 10 mL of sample solvent. […] The extent of degradation was evaluated by assuming that the degradation products had similar extinction coefficients as the parent at the wavelength of interest.
Sham determinations were performed for each set of experiments to determine an “expected” amount of active per CAG activation. […] This was collected on a Kimwipe which was placed into sample solvent and sonicated. This process was performed in triplicate and was analyzed with other analytical samples.
(§5) Dose capture determinations were conducted. […] The extent of degradation was evaluated by assuming that the degradation products had similar extinction coefficients as the parent at the wavelength of interest.
Sham determinations were performed for each set of experiments to determine an “expected” amount of active per CAG activation. This was performed by running the equipment at a target resistance of 0.2 ohms. […] This was collected on a Kimwipe which was placed into sample solvent and sonicated. This process was performed in triplicate and was analyzed with other analytical samples.
For data set [2] the following is noted: 2 % in PG.
Protocol: (§6) Buspirone was dissolved in acidic and basic solutions and heated to 50 degrees Celsius for 1 hour to promote acid and base catalyzed hydrolysis. Buspirone was also subjected to peroxide with heating to 50 degrees Celsius for 1 hour to promote oxidation. As a final stability check, solid buspirone was subjected to heating with a differential scanning calorimeter. Conditions were optimized to produce thermal degradation products by heating to 350 degrees Celsius.
as §2
(§7) After evaluation of the data, it was determined that buspirone should be thermally stressed with a DSC to produce a degradation profile thought to be more representative of buspirone degradation after aerosolization via the CAG. In doing so, thermal degradation products were produced under the conditions stated above. This provided an indication of retention times for potential degradation products of buspirone after aerosolization using the CAG.
(§8) Buprenorphine was subjected to heating with a differential scanning calorimeter.
as §3
(§9) Conditions were optimized to produce thermal degradation products by heating to 350 degrees Celsius.
as §4
(§10) Thermal degradation products were produced under the conditions stated above.
(§11) Conditions were optimized to produce thermal degradation products by heating to 300 degrees Celsius.
as §5
The nature of data set [3]: Emitted dose and fine particle fraction. The class given is physicochemical. The settings on record: formulation % w/v: buprenorphine 0.2, buspirone 2.0, cyclobenzaprine 2.0, triazolam 0.1, zolpidem 0.2; for Avg. Emitted Dose per Actuation: 10 second actuations, average of n=3-5 runs; for Avg. FPF: fine particle fraction = percent of total dose collected less than 5.6 microns, n=3-5 runs.

Data set [4] can be described thus: Aerosol particle size determination, 10-stage MOUDI at 30 L/min with USP throat. In kind it is physicochemical. The settings on record: for MMAD / Material Balance / Throat Deposition / Wall Losses / Throat Depositions: 5 mg/sec. The method, then: Aerosol particle size was determined using the 10-stage MOUDI operated at 30 L/min. The sample foils were placed in beakers, 10 mL of sample solvent was added, and the beakers swirled thoroughly. For the USP throat, 10 mL of sample solvent was added and shaken thoroughly. Wall losses were assessed by washing the MOUDI walls with a Kimwipe dipped in sample solvent. The same 10 mL of mobile phase was used to wash the walls of all the stages. The collected samples were analyzed.
(§1) Aerosol particle size was determined using the 10-stage MOUDI operated at 30 L/min. […] For the USP throat, 5 mL of sample solvent was added and shaken thoroughly. Wall losses were assessed by washing the MOUDI walls with a Kimwipe dipped in sample solvent. The same sample solvent was used to wash the walls of all the stages. The collected samples were analyzed using the assay method.
Aerosol particle size was determined using the 10-stage MOUDI operated at 30 L/min. For MOUDI runs 1-4, the sample foils were placed in beakers, 5 mL of sample solvent was added, and the beakers swirled thoroughly. For the USP throat, 5 mL of sample solvent was added and shaken thoroughly. Wall losses were assessed by washing the MOUDI walls with a Kimwipe dipped in sample solvent. The same 5 mL of sample solvent was used to wash the walls of all the stages. The collected samples were analyzed using the assay method. For MOUDI runs 5-9, the procedure was the same as above except distilled deionized water was used in place of the sample solvent. This was done to allow for simultaneous PG particle size analysis. Two actuations were used for all MOUDI runs with the exception of MOUDI runs 1 and 7.
Aerosol particle size was determined using the 10-stage MOUDI operated at 30 L/min. […] For the USP throat, 10 mL of sample solvent was added and shaken thoroughly. Wall losses were assessed by washing the MOUDI walls with a Kimwipe dipped in sample solvent. The same sample solvent was used to wash the walls of all the stages. The collected samples were analyzed using the assay method.
as §1

Data set [5] can be described thus: Degradation determination after aerosolization (stability indicating assay). To be noted: zolpidem 0.2% in PG, target resistance 0.600 ohms, runs 5-9.
Protocol: as §6, §2, §7, §8, §3, §9, §4, §10, §11, §5
[6] abbreviates: buspirone 0.5% in PG, target resistance 0.600 ohms.
Setting [7] is: buspirone 0.5% in PG, target resistance 0.610 ohms, monohydrochloride.
The mark [8] stands for this setting: buspirone 2.0% in PG, target resistance 0.590 ohms.
[9] abbreviates: buspirone 2.0% in PG, target resistance 0.595 ohms.
[10] abbreviates: buspirone 2.0% in PG, target resistance 0.600 ohms, monohydrochloride.
Setting [11] is: buspirone 2.0% in PG, target resistance 0.605 ohms, runs 11-15, listed as buspirone, monohydrochloride.
[12] abbreviates: buspirone 2.0% in PG, target resistance 0.605 ohms, runs 11-15, monohydrochloride.
[13] abbreviates: buspirone 2.0% in PG, target resistance 0.610 ohms.
Setting [14] is: cyclobenzaprine 2.0% in PG, target resistance 0.595 ohms, 1 actuation.
Where [15] appears, read: triazolam 0.1% in PG, target resistance 0.590 ohms.
Setting [16] is: triazolam 0.1% in PG, target resistance 0.595 ohms.
Where [17] appears, read: triazolam 0.1% in PG, target resistance 0.600 ohms.
The mark [18] stands for this setting: triazolam 0.1% in PG, target resistance 0.605 ohms, runs 5-9.
Setting [19] is: zolpidem 0.2% in PG, target resistance 0.590 ohms, 1 actuation.
Where [20] appears, read: zolpidem 0.2% in PG, target resistance 0.600 ohms, 1 actuation.

On to `Cl.O=C1CC2(CCCC2)CC(=O)N1CCCCN1CCN(c2ncccn2)CC1` [Buspirone, 8-[4-[4-(2-pyrimidinyl)-1-piperazinyl]butyl]-8-azaspiro[4,5]decane-7,9-dione monohydrochloride], for which the “Dose Capture” value in data set [1] (buspirone 2.0% in PG, target resistance 0.595 ohms, runs 13-15, mean) is listed as 102^1%; in data set [1] (buspirone 2.0% in PG, target resistance 0.600 ohms, runs 24-28, mean), 105^3%; in data set [1] (buspirone 2.0% in PG, target resistance 0.605 ohms, about 90 J, runs 29-33, mean, listed as buspirone, monohydrochloride), 104%; in data set [1] (buspirone 2.0% in PG, target resistance 0.605 ohms, about 90 J, runs 29-33, mean, monohydrochloride) it was 104^3%; in data set [1] (buspirone 2.0% in PG, target resistance 5.90 ohms, runs 7-9, mean of 3), 9^1%. Further, the “average degradation of the active” value in data set [2] came out at 0.25%. Besides, in data set [2], the “major degradation peak, share of degradation observed” value is recorded as “approximately 0.09%”. In addition, in data set [2], the “other 8 degradation peaks, each” value is on record as “approximately 0.02%”. Also, the “Avg. Emitted Dose per Actuation” value in data set [3] turned out to be 1010.44 µg. The “Avg. FPF” value in data set [3] was 91.60 % of Emitted. The MMAD in data set [4] (setting [6]) is 0.31 microns; in data set [4] (setting [7]), 0.30 microns and 0.47 microns and 0.32 microns and 0.29 microns; in data set [4] (setting [8]), 0.54 microns; in data set [4] (setting [9]), 0.46 microns; in data set [4] (setting [10]) it was 0.30 microns and 0.48 microns; in data set [4] (setting [11]) it was “approximately 0.30 microns”. Besides, the MMAD in data set [4] (setting [12]) is 0.31 microns and 0.30 microns and 0.29 microns and 0.32 microns; in data set [4] (setting [13]), 0.30 microns. Further, the “Material Balance” value in data set [4] (setting [6]) was 100%; in data set [4] (setting [8]) it was 11%; in data set [4] (setting [9]) it was 91%; in data set [4] (setting [10]), 100% and 98%; in data set [4] (setting [11]) it was “exceeded 100%”; in data set [4] (setting [12]) it was 105% and 108% and 102% and 107% and 111%. For the same compound, in data set [4] (setting [13]), the “Material Balance” value stood at 98%. Further, the “Throat Deposition” value in data set [4] (setting [6]) was 7%; in data set [4] (setting [7]) it was 10% and 3% and 6% and 4%; in data set [4] (setting [8]) it was 44%; in data set [4] (setting [9]) it was 44%; in data set [4] (setting [11]), “less than 5%”; in data set [4] (setting [12]) it was 4% and 1% and 3% and 2%. Also, the “Throat Deposition” value in data set [4] (setting [13]) is listed as 14%. Moreover, the “Wall Losses” value in data set [4] (setting [6]) was 2%; in data set [4] (buspirone 0.5% in PG, target resistance 0.610 ohms), 4%; in data set [4] (setting [8]), 6%; in data set [4] (setting [9]) it was 1%; in data set [4] (setting [10]), 2% and 4%; in data set [4] (setting [12]), 4% and 3% and 9%. Moreover, the “Wall Losses” value in data set [4] (setting [13]) is 1%. Besides, the “recovered buspirone found on the throat” value in data set [4] (buspirone 2.0% in PG, energies approximately 77 J, runs 8 and 10) was “greater than 40%”.

In the case of `CN(C)CCC=C1c2ccccc2C=Cc2ccccc21` [Cyclobenzaprine, 3-(5H-Dibenzo[a,d]cyclohepten-5-ylidene)-N,N-dimethyl-1-propanamine], the “Dose Capture” value in data set [1] (cyclobenzaprine 2.0% in PG, target resistance 0.595 ohms, about 73 J, 1 actuation, listed as cyclobenzaprine) was above 95%. In addition, the “Dose Capture” value in data set [1] (cyclobenzaprine 2.0% in PG, target resistance 0.610 ohms, 1 actuation) is listed as 109.93%. In addition, the average degradation result in data set [2] is “less than 0.3%”. Moreover, in data set [3], the “Avg. Emitted Dose per Actuation” value worked out at 836.16 µg and the “Avg. FPF” value is 94.35 % of Emitted. In data set [4] (setting [14]), the MMAD was 0.330 microns and 0.329 microns and 0.343 microns and 0.333 microns and 0.336 microns and 0.256^2 microns; the “Material Balance” value is 92.04% and 91.03% and 93.48% and 99.10% and 93.99% and 61.98^2%; the “Throat Depositions” value is 3.45% and 3.39% and 5.55% and 2.59% and 3.09% and 4.89^2%; the “Wall Losses” value was 0.81% and 1.12% and 2.33% and 1.98% and 2.26% and 1.99^2%. The “Throat Depositions” value in data set [4] (cyclobenzaprine 2.0% in PG, target resistance 0.595 ohms, 1 actuation, listed as cyclobenzaprine) is “less than 4%”. Further, the “average MMAD” value in data set [4] (cyclobenzaprine 2.0% in PG, target resistance 0.595 ohms, approximately 71 J, runs 1-6 excluding run 3) is “approximately 0.33 microns”.

Take `Cc1nnc2n1-c1ccc(Cl)cc1C(c1ccccc1Cl)=NC2` [Triazolam, 8-chloro-6-(2-chlorophenyl)-1-methyl-4H-[1,2,4]triazolo[4,3-a][1,4]benzodiazepine]: the “Dose Capture” value is reported as 90^2% in data set [1] (triazolam 0.1% in PG, target resistance 0.605 ohms, about 90 J, runs 10-14, mean of 15); 90% in data set [1] (triazolam 0.1% in PG, target resistance 0.605 ohms, about 90 J, runs 10-14, mean of 15, listed as triazolam); 86% in data set [1] (triazolam 0.1% in PG, target resistance 0.610 ohms). Moreover, the “Avg. Emitted Dose per Actuation” value in data set [3] turned out to be 46.46 µg. For the same compound, the “Avg. FPF” value in data set [3] is 86.16 % of Emitted. Moreover, the MMAD in data set [4] (setting [15]) was 0.847 microns and 0.642^3 microns; in data set [4] (setting [16]), 0.414^3 microns; in data set [4] (setting [17]), 0.378^3 microns; in data set [4] (setting [18]), 0.511^3 microns and 0.431^3 microns and 0.483 microns and 0.444^3 microns and 0.446^3 microns. For the same compound, the “Material Balance” value is 74.08% and 108.22^3% in data set [4] (setting [15]); 98.50^3% in data set [4] (setting [16]); 104.22^3% in data set [4] (setting [17]); 102.10^3% and 96.32^3% and 107.02% and 91.60^3% and 101.09^3% in data set [4] (setting [18]). The “Wall Losses” value in data set [4] (setting [15]) was 15.51^3%; in data set [4] (setting [16]) it was 6.69^3%; in data set [4] (setting [17]), 11.04^3%. Further, the “Throat Deposition” value is 33.14% and 39.28^3% in data set [4] (triazolam 0.1% in PG, target resistance 0.590 ohms, approximately 70 J, runs 1 and 2); “greater than 30%” in data set [4] (triazolam 0.1% in PG, target resistance 0.590 ohms, approximately 70 J, runs 1 and 2, listed as triazolam); 3.66^3% in data set [4] (setting [16]); 2.96^3% in data set [4] (setting [17]); 2.43^3% and 1.35^3% and 2.87% and 2.47^3% and 1.97^3% in data set [4] (setting [18]); “less than 3%” in data set [4] (triazolam 0.1% in PG, target resistance 0.605 ohms, runs 5-9, listed as triazolam). The “average MMAD” value in data set [4] (triazolam 0.1% in PG, target resistance 0.605 ohms, approximately 90 J, runs 5-9) is “approximately 0.46 microns”.

As to `Cc1ccc(-c2nc3ccc(C)cn3c2CC(=O)N(C)C)cc1` [Zolpidem, N,N,6-Trimethyl-2-(4-methylphenyl)-imidazo[1,2-a]pyridine-3-acetamide], in data set [5], the “Percent Degradation” value is 0.26% and 0.02% and 0.00% and 0.03% and 0.16%; the average degradation result is “less than 0.1%”. Moreover, in data set [3], the “Avg. Emitted Dose per Actuation” value is 92.55 µg and the “Avg. FPF” value is recorded as 93.25 % of Emitted. Besides, in data set [4] (setting [19]), the MMAD is reported as 0.464 microns, the “Material Balance” value is listed as 64.51%, the “Throat Deposition” value worked out at 5.36% and the “Wall Losses” value was 1.68%. In data set [4] (setting [20]), the MMAD was 0.481 microns and 0.459 microns and 0.420 microns and 0.421 microns and 0.404 microns and 0.431 microns; the “Material Balance” value was 100.06% and 90.77% and 97.74% and 95.83% and 101.56% and 93.04%; the “Throat Deposition” value was 3.97% and 0.12% and 0.62% and 1.27% and 0.21% and 1.95%; the “Wall Losses” value was 6.18% and 2.67% and 3.55% and 3.85% and 0.90% and 1.35%. Further, in data set [4] (zolpidem 0.2% in PG, target resistance 0.600 ohms, approximately 75 J, runs 5-8), the “average MMAD” value was “approximately 0.45 microns”.
